# Assay results: PubChem BioAssay AID1963849 (Molecular Pharmacology Branch, DTP, NCI, 2024)
# Values joined by “and” are separate entries in the source; they are usually repeats but may differ in a detail not shown here. Equal values may be shown once.
# Test system: 299254-011-R-J1-PDC complex spheroid viability
# Assay: Anticancer human tumor 299254-011-R-J1-PDC patient-derived melanoma cell line growth inhibition [POLQ]
# Conditions: for viability, T/C: stronger effect = lower value
# Description: Multicellular complex tumor spheroid response to Polymerase (POL) inhibitors (novobiocin, ART-558, RP6685) in combination with a variety of drugs and investigational agents in selected tumor cell lines
# The POL inhibitors (novobiocin, ART-558, and RP6685) were evaluated both individually and in combination with standard of care and investigational anticancer small molecules within a complex spheroid model of solid tumors. . Complex spheroids include a stromal component modeled by human endothelial cells (HUVEC) and fibroblasts modeled by human mesenchymal stem cells (MSCs). The concentration ranges selected for each drug and investigational agent were based upon clinically achievable concentrations if the clinical Cmax of the agent was known.
# Compounds. The drugs and investigational agents: novobiocin (NSC847541), ART-558 (NSC835418), RP-6685 (NSC848927), peposertib (NSC802822), ceralasertib (NSC780249), elimusertib (NSC800525), camonsertib (NSC841442), AZD-1390 (NSC803789), olaparib (NSC753686), talazoparib (NSC767125), rucaparib (NSC756644), sotorasib (NSC818433), MRTX-1133 (NSC836407), SN-38 (NSC673596), topotecan (NSC609699), epotoside (NSC141540), doxorubicin (NSC123127), gemcitabine (NSC613327), 5-fluorouracil (NSC19893), paclitaxel (NSC125973), vemurafenib (NSC761431), MSA-2 (NSC828583), SN-011 (NSC837082), adavosertib (NSC754352), prexasertib (NSC758257), carboplatin (NSC241240) and oxaliplatin (NSC266046), were obtained from the National Cancer Institute (NCI) Developmental Therapeutics Program Chemical Repository (21). The FDA-approved anticancer drug set is available from the Developmental Therapeutics Program at https://dtp.cancer.gov/organization/dscb/obtaining/. […] The stock solutions were prepared in dimethyl sulfoxide (DMSO, Sigma-Aldrich, St. Louis, MO, cat. D2650), except for the platinum compounds which were prepared in saline (Quality Biological, Gaithersburg, MD, cat. 114-055-101), at 800-fold the tested concentration and stored at -70 degrees C prior to their use. All drugs and investigational agents were tested over a range starting from a high concentration at or near the clinical Cmax and decreasing in half-log increments. If the clinical Cmax for an agent had not been determined, the highest concentration tested was 10 microM, except for SN-38, which was tested at a high concentration of 1 microM.
# Cell Culture. All cells were maintained in an incubator at 37 degrees C and 5% CO2 with 95% humidity. The PDC lines were cultured according to standard operating procedures established by the NCI PDMR (https://pdmr.cancer.gov). Table 3 of the manuscript, lists the cell lines along with the number of the three cell types plated to form the mct-spheroids and media for tumor cell growth. After thawing, all PDC lines, except 997537-175-T-J1-PDC and 415267-285-R-J2-PDC, were cultured in Matrigel-coated flasks prepared with a working solution of 1X Ham's F-12 nutrient mix, without supplementation (Thermo Fisher Scientific, cat. 11765054), 100 U/mL penicillin-streptomycin (Thermo Fisher Scientific, cat. 15140122), and 2.5% Matrigel (Corning Inc., Corning, NY, cat. 354248) for the first three passages. The two PDC lines 997537-175-T-J1-PDC and 415267-285-R-J2-PDC were cultured on uncoated flasks. The 857933-349-R-J2-PDC line was cultured in 6C/Colon 1B media containing advanced DMEM/F-12 (Thermo Fisher Scientific, cat. 12634028), 10 mM HEPES (Thermo Fisher Scientific, cat. 15630080), 1X GlutaMAX supplement (Thermo Fisher Scientific, cat. 35050061), 0.1 mg/mL primocin (InvivoGen, San Diego, CA, cat. ant-pm-2), 10% defined fetal bovine serum, heat inactivated (HyClone Laboratories Inc., Logan, UT, cat. SH30070.03HI), 50% L-WRN conditioned media (ATCC, cat. CRL-3276), 1.25 mM N-Acetyl-L-cysteine (Sigma-Aldrich, cat. A9165), 10 mM nicotinamide (Sigma-Aldrich, cat. N0636), 1X B-27 supplement (Thermo Fisher Scientific, cat. 17504044), 1X N-2 supplement (Thermo Fisher Scientific, cat. […]
# 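Further: spheroids exposed to drugs for one week before measurement.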
# 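Wherever viability, T/C is given: percent viability relative to DMSO vehicle control taken as 100%.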
structure (smiles),measurement,setting,value
COc1cccc(OCCCN)c1-c1cc(Nc2cnc(C#N)cn2)n[nH]1,"viability, T/C",compound 0.00316 µM,98.2% and 103% (2×)
same,"viability, T/C",compound 0.01 µM,92.8% and 112% and 96%
same,"viability, T/C",compound 0.0316 µM,60.5% and 75.7% and 77.2%
same,"viability, T/C",compound 0.1 µM,52.1% and 57.2% and 56.9%
same,"viability, T/C",compound 0.316 µM,37.6% and 41.3% and 50.1%
same,"viability, T/C",compound 1 µM,38.9% and 37.3% and 45.4%
same,IC50,curve of compound,78.9 nM and 135 nM and 268 nM
CCCS(=O)(=O)Nc1ccc(F)c(C(=O)c2c[nH]c3ncc(-c4ccc(Cl)cc4)cc23)c1F,"viability, T/C",compound 0.0316 µM,114% and 106% and 96.5%
same,"viability, T/C",compound 0.1 µM,99.7% and 109% and 112%
same,"viability, T/C",compound 0.316 µM,118% and 95.7% and 123%
same,"viability, T/C",compound 1 µM,102% and 122% and 117%
same,"viability, T/C",compound 3.16 µM,109% and 107% and 120%
same,"viability, T/C",compound 10 µM,50.6% and 47.5% and 69.2%
same,IC50,curve of compound,> 10000 nM and 9540 nM
C=CCn1c(=O)c2cnc(Nc3ccc(N4CCN(C)CC4)cc3)nc2n1-c1cccc(C(C)(C)O)n1 + Nc1ccc(C#CCN(C(=O)Cc2ncc(C(F)(F)F)cc2C(F)(F)F)c2ccc(F)cc2)nn1,IC50,"curve of first compound, second compound 0.0316 µM",> 1000 nM
same,IC50,"curve of first compound, second compound 0.1 µM",> 1000 nM
same,IC50,"curve of first compound, second compound 0.316 µM",> 1000 nM
same,IC50,"curve of first compound, second compound 1 µM",> 1000 nM
same,IC50,"curve of first compound, second compound 3.16 µM",> 1000 nM
same,IC50,"curve of first compound, second compound 10 µM",> 1000 nM
same,"viability, T/C","second compound 0.0316 µM, first compound 0.00316 µM",104%
same,"viability, T/C","second compound 0.0316 µM, first compound 0.01 µM",85%
same,"viability, T/C","second compound 0.0316 µM, first compound 0.0316 µM",98.5%
same,"viability, T/C","second compound 0.0316 µM, first compound 0.1 µM",105%
same,"viability, T/C","second compound 0.0316 µM, first compound 0.316 µM",95.8%
same,"viability, T/C","second compound 0.0316 µM, first compound 1 µM",68.3%
same,"viability, T/C","second compound 0.1 µM, first compound 0.00316 µM",101%
same,"viability, T/C","second compound 0.1 µM, first compound 0.01 µM",93.1%
same,"viability, T/C","second compound 0.1 µM, first compound 0.0316 µM",94.9%
same,"viability, T/C","second compound 0.1 µM, first compound 0.1 µM",102%
same,"viability, T/C","second compound 0.1 µM, first compound 0.316 µM",104%
same,"viability, T/C","second compound 0.1 µM, first compound 1 µM",69.9%
same,"viability, T/C","second compound 0.316 µM, first compound 0.00316 µM",104%
same,"viability, T/C","second compound 0.316 µM, first compound 0.01 µM",101%
same,"viability, T/C","second compound 0.316 µM, first compound 0.0316 µM",93.4%
same,"viability, T/C","second compound 0.316 µM, first compound 0.1 µM",93.4%
same,"viability, T/C","second compound 0.316 µM, first compound 0.316 µM",104%
same,"viability, T/C","second compound 0.316 µM, first compound 1 µM",74.6%
same,"viability, T/C","second compound 1 µM, first compound 0.00316 µM",102%
same,"viability, T/C","second compound 1 µM, first compound 0.01 µM",120%
same,"viability, T/C","second compound 1 µM, first compound 0.0316 µM",107%
same,"viability, T/C","second compound 1 µM, first compound 0.1 µM",97.2%
same,"viability, T/C","second compound 1 µM, first compound 0.316 µM",94.4%
same,"viability, T/C","second compound 1 µM, first compound 1 µM",58%
same,"viability, T/C","second compound 3.16 µM, first compound 0.00316 µM",95.5%
same,"viability, T/C","second compound 3.16 µM, first compound 0.01 µM",95.5%
same,"viability, T/C","second compound 3.16 µM, first compound 0.0316 µM",95.7%
same,"viability, T/C","second compound 3.16 µM, first compound 0.1 µM",95.3%
same,"viability, T/C","second compound 3.16 µM, first compound 0.316 µM",101%
same,"viability, T/C","second compound 3.16 µM, first compound 1 µM",72.5%
same,"viability, T/C","second compound 10 µM, first compound 0.00316 µM",103%
same,"viability, T/C","second compound 10 µM, first compound 0.01 µM",92%
same,"viability, T/C","second compound 10 µM, first compound 0.0316 µM",88.6%
same,"viability, T/C","second compound 10 µM, first compound 0.1 µM",87.5%
same,"viability, T/C","second compound 10 µM, first compound 0.316 µM",77.3%
same,"viability, T/C","second compound 10 µM, first compound 1 µM",58.9%
CC[C@@]1(O)C(=O)OCc2c1cc1n(c2=O)Cc2cc3c(CN(C)C)c(O)ccc3nc2-1,"viability, T/C",compound 0.000316 µM,98.9% and 101% and 112%
same,"viability, T/C",compound 0.001 µM,94.2% and 113% and 101%
same,"viability, T/C",compound 0.00316 µM,106% and 89.5% and 111%
same,"viability, T/C",compound 0.01 µM,103% (2×) and 114%
same,"viability, T/C",compound 0.0316 µM,107% and 108% and 94.4%
same,"viability, T/C",compound 0.1 µM,78.4% and 81.1% and 72.7%
same,IC50,curve of compound,> 100 nM
